Reference: patent EP2787003A1, “Antimicrobial peptide produced by marine sponge-derived Bacillus subtilis” (priority 2013, dated 2014)

Assays:
L. monocytogenes [1] = assay: Spot on lawn assay; assay type: cell-based, Listeria monocytogenes EGDe; design: key: +, clear halo of growth inhibition; ++: multiple +, increased activity as assessed visually by the increased diameter of the inhibition zone; +++: multiple +, increased activity as assessed visually by the increased diameter of the inhibition zone; ++++: multiple +, increased activity as assessed visually by the increased diameter of the inhibition zone; +++++: multiple +, increased activity as assessed visually by the increased diameter of the inhibition zone; -, no inhibition; details: indicator L. monocytogenes
Experimental: (§1) Antimicrobial activity of isolate MMA7 against the indicator strains was initially assessed with a deferred antagonism assay as described by Phelan et al. (2012). Subsequent testing of supernatants, crude extracts and purified compounds was carried out with a well and/or a spot on lawn assays. Essentially, 5 µl of samples were spotted onto 20 ml agar plates seeded with the indicator strain to a final OD600 of 0.015, or 30 µl aliquots were applied to a 5 mm well made on identical plates.

V. anguillarum = assay: Spot on lawn assay; assay type: cell-based, Listonella (Vibrio) anguillarum LMG 4410; design: key to Antimicrobial activity, spot on lawn assay: +, clear halo of growth inhibition; ++: multiple +, increased activity as assessed visually by the increased diameter of the inhibition zone; +++: multiple +, increased activity as assessed visually by the increased diameter of the inhibition zone; ++++: multiple +, increased activity as assessed visually by the increased diameter of the inhibition zone; +++++: multiple +, increased activity as assessed visually by the increased diameter of the inhibition zone; -, no inhibition
Experimental: as §1

hVISA = assay: Spot on lawn assay; assay type: cell-based, hVISA 35197; design: key: +, clear halo of growth inhibition; ++: multiple +, increased activity as assessed visually by the increased diameter of the inhibition zone; +++: multiple +, increased activity as assessed visually by the increased diameter of the inhibition zone; ++++: multiple +, increased activity as assessed visually by the increased diameter of the inhibition zone; +++++: multiple +, increased activity as assessed visually by the increased diameter of the inhibition zone; -, no inhibition; details: indicator hVISA
L. monocytogenes [2] = assay: Thermal stability, bioactivity by spot on lawn assay
MRSA = assay: Spot on lawn assay; assay type: cell-based, MRSA ST 530; design: key: +, clear halo of growth inhibition; ++: multiple +, increased activity as assessed visually by the increased diameter of the inhibition zone; +++: multiple +, increased activity as assessed visually by the increased diameter of the inhibition zone; ++++: multiple +, increased activity as assessed visually by the increased diameter of the inhibition zone; +++++: multiple +, increased activity as assessed visually by the increased diameter of the inhibition zone; -, no inhibition; details: indicator MRSA

C=C1NC(=O)[C@@H]2CSC[C@@H](NC(=O)[C@@H]3CS[C@@H](C)[C@H]4NC(=O)[C@H](Cc5ccccc5)NC(=O)[C@H](NC(=O)[C@H](CCCNC(=N)N)NC(=O)[C@@H]5CSC[C@@H](NC(=O)[C@H](CCC(N)=O)NC(=O)[C@@H](NC(=O)[C@@H](NC(=O)/C(=C/C)NC(=O)[C@H](CCCCN)NC(=O)CNC(=O)[C@@H](NC(=O)/C(=C/C)NC(=O)[C@H](C)NC(=O)[C@H](Cc6c[nH]c7ccccc67)NC(=O)C(=O)CC)[C@@H](C)CC)[C@@H](C)CC)C(C)C)C(=O)N[C@@H](C(C)C)C(=O)N[C@@H](CCCCN)C(=O)N[C@@H](CCCCN)C(=O)N5)[C@H](C)SC[C@H](NC4=O)C(=O)NCC(=O)N3)C(=O)N[C@@H](CC(C)C)C(=O)NCC(=O)N[C@H](CSC[C@@H](C(=O)N[C@@H](CC(N)=O)C(=O)O)NC(=O)[C@H](CC(N)=O)NC1=O)C(=O)N2 [Subtilomycin]
Antimicrobial activity, spot on lawn assay (L. monocytogenes [1]): ++ | Amount of peptide needed for detectable activity relative to that required to inhibit the Gram-positive indicators (V. anguillarum; V. anguillarum): four to five fold more peptide | Antimicrobial activity, spot on lawn assay (V. anguillarum; indicator V. anguillarum, *activity only detected with 4 to 5 times more peptide than that used for the other indicators): +* | Antimicrobial activity, spot on lawn assay (hVISA): + | Activity after heat treatment (L. monocytogenes [2]; 100 °C for 1 hr, L. monocytogenes): no activity | Activity after heat treatment (L. monocytogenes [2]; wide range of temperatures, including 100 °C for 30 minutes): stable | Antimicrobial activity, spot on lawn assay (MRSA): +
